Calls of active or inactive are those of the source. The calls are words filed in the database; no cut-off is given here.

Activity and fold change (FC) data for 8 compounds are collected here from ChEMBL document CHEMBL4842305, “Bifunctional Doscadenamides Activate Quorum Sensing in Gram-Negative Bacteria and Synergize with TRAIL to Induce Apoptosis in Cancer Cells” (2021).

The test system of test [1] is MDA-MB-231. In words: Synergistic anticancer activity against human MDA-MB-231 cells assessed as reduction in cell viability at 50 uM pretreated for 3 hrs followed by TRAIL stimulation measured after 24 hrs. Type of test: functional. The arrangement: unit not given here. The settings on record: time 27 hrs.
The test system of test [2] is MDA-MB-231. In words: Synergistic anticancer activity against human MDA-MB-231 cells assessed as reduction in cell viability at 25 uM pretreated for 3 hrs followed by TRAIL stimulation measured after 24 hrs. In kind it is functional. The arrangement: unit not given here. As to conditions: time 27 hrs.
A short description of test [3]: Activation of quorum sensing system in Pseudomonas aeruginosa JP1 assessed as increase in pyocyanin production at 100 uM measured after 6 hrs relative to control. The settings on record: for fold change (FC): filed as activator.
The subject of test [4] is MDA-MB-231. In words: Induction of apoptosis in human MDA-MB-231 cells assessed as increase in cleaved PARP level at 50 uM by Western blot analysis. Type of test: functional, cell-based.
In test [5] the target is T1, Transcriptional activator protein LasR (Pseudomonas aeruginosa (strain ATCC 15692 / PAO1 / 1C / PRS 101 / LMG12228)) (UniProt P25084).
T1 sequence (whole entry): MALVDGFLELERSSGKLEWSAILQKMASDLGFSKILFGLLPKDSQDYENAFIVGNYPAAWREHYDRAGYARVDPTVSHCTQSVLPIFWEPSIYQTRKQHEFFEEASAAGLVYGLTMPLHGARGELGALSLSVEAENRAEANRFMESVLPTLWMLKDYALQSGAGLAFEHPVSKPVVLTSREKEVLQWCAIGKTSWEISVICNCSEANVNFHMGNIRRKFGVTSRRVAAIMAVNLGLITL
The test can be described thus: Binding affinity to wild type Pseudomonas aeruginosa LasR expressed in Escherichia coli at 100 uM measured after 6 hrs by luminescence assay. The settings on record: filed as activator.

Test [6] relates to Pseudomonas aeruginosa. The test can be described thus: Binding affinity to Pseudomonas aeruginosa LasR D73N mutant expressed in Escherichia coli at 100 uM measured after 6 hrs by luminescence assay. As to conditions: filed as activator.
Test [7] deals with Vibrio harveyi. In words: Activation of quorum sensing in Vibrio harveyi from 10 to 200 uM after 7 hrs by luminescence method. As to conditions: filed as activator, dose 10-200 µM.
In test [8] the test system is Pseudomonas aeruginosa. The test can be described thus: Binding affinity to Pseudomonas aeruginosa LasR Y56F mutant expressed in Escherichia coli at 100 uM measured after 6 hrs by luminescence assay. As to conditions: filed as activator.
For test [9], the system named is Pseudomonas aeruginosa. In words: Binding affinity to Pseudomonas aeruginosa LasR W60F mutant expressed in Escherichia coli at 100 uM measured after 6 hrs by luminescence assay. As to conditions: filed as activator.
Test [10] has as its system Vibrio harveyi. In words: Activation of quorum sensing in Vibrio harveyi upto 100 uM after 7 hrs by luminescence method. The settings on record: filed as activator, dose microM <=100, time 7.0 hrs.

Turning to `C=CCCCC[C@@H](C)C(=O)N1C(=O)C=C(OC)[C@@H]1CCCCNC(=O)OC(C)(C)C`, the results for the Activity in the test on MDA-MB-231 [1] and in the test with MDA-MB-231 [2] were 0.02 and 0.06, respectively. Also, the fold change (FC) in test [3] was 4.

With `CCCCCC[C@@H](C)C(=O)N1C(=O)C=C(OC)[C@@H]1CCCCNC(=O)OC(C)(C)C`, the Activity in the test with MDA-MB-231 [1] came to 0.14; in the test with MDA-MB-231 [2] it was 0.26. Moreover, in test [3], the fold change (FC) was determined as 5. Also, in the test with MDA-MB-231 [4], the outcome was Active.

Consider `C#CCCCC[C@@H](C)C(=O)NCCCC[C@H]1C(OC)=CC(=O)N1C(=O)[C@H](C)CCCCC#C`, for which the result (in [5]; with Pseudomonas aeruginosa [6]; in the test with Vibrio harveyi [7]; with Pseudomonas aeruginosa [8]; in the test with Pseudomonas aeruginosa [9]) was Active. The Activity is 0.01 with MDA-MB-231 [1] and 0.08 in the test with MDA-MB-231 [2]. For the same compound, the fold change (FC) in test [3] was determined as 3.

On to `C#CCCCC[C@@H](C)C(=O)NCCCC[C@@H]1NC(=O)C=C1OC`, for which the figures for the Activity with MDA-MB-231 [1] and in the test on MDA-MB-231 [2] were 0 and 0.02, respectively. Moreover, the result in test [3] was inactive.

As for `C=CCCCC[C@@H](C)C(=O)NCCCC[C@H]1C(OC)=CC(=O)N1C(=O)[C@H](C)CCCCC=C`, the result in the test with Vibrio harveyi [10] was Active. In addition, the Activity in the test with MDA-MB-231 [1] is on record as 0.08; in the test on MDA-MB-231 [2], 0.31.

For `CCCCCC[C@@H](C)C(=O)NCCCC[C@H]1C(OC)=CC(=O)N1C(=O)[C@H](C)CCCCCC`, the values for the Activity in the test with MDA-MB-231 [1] and in the test on MDA-MB-231 [2] were 0.23 and 0.31, respectively.

Turning to `CCCCCCCCCC(=O)CC(=O)N[C@H]1CCOC1=O`, the Activity in the test on MDA-MB-231 [1] is listed as -0.07; with MDA-MB-231 [2], 0.05.

Regarding `C#CCCCC[C@@H](C)C(=O)N1C(=O)C=C(OC)[C@@H]1CCCCNC(=O)OC(C)(C)C`, the results for the Activity with MDA-MB-231 [1] and with MDA-MB-231 [2] were 0.05 and 0.18, respectively. The outcome with Vibrio harveyi [7] was Active. The fold change (FC) in [3] is 3.
